Measurements from ChEMBL document CHEMBL4800722, “Data for DCP probe BI 605906” (2021).

Assays:
[1] = molecular target: LIM domain kinase 1 (Homo sapiens) (UniProt P53667); conditions: Compound concentration 1.0 uM
[2] = molecular target: 5-hydroxytryptamine receptor 3A (Homo sapiens) (UniProt P46098); conditions: Compound concentration 10.0 uM
[3] = molecular target: Tyrosine-protein kinase Mer (Homo sapiens) (UniProt Q12866); conditions: Compound concentration 1.0 uM
[4] = molecular target: Vascular endothelial growth factor receptor 1 (Homo sapiens) (UniProt P17948); conditions: Compound concentration 1.0 uM
[5] = molecular target: Dual specificity tyrosine-phosphorylation-regulated kinase 4 (Homo sapiens) (UniProt Q9NR20); conditions: Compound concentration 1.0 uM
[6] = molecular target: Serine/threonine-protein kinase SIK2 (Homo sapiens) (UniProt Q9H0K1); test: SNF1LK2 Invitrogen Lab (UK) kinase screen (BI); conditions: Compound concentration 1.0 uM
[7] = molecular target: MAP kinase-activated protein kinase 2 (Homo sapiens) (UniProt P49137)
Sequence of MAP kinase-activated protein kinase 2 (Homo sapiens) (P49137 whole entry, looked up): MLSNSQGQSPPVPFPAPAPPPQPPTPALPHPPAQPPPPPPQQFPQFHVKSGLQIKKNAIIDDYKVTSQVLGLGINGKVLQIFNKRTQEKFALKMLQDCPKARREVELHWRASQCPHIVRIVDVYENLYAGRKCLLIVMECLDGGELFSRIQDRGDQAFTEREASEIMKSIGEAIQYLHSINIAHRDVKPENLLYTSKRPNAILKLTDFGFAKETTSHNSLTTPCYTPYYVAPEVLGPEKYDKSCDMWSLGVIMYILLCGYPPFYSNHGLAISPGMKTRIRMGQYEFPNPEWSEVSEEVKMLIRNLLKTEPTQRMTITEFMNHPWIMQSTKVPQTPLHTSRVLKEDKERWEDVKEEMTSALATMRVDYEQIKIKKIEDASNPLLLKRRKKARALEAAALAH

[8] = molecular target: 3-phosphoinositide-dependent protein kinase 1 (Homo sapiens) (UniProt O15530); conditions: Compound concentration 1.0 uM
[9] = molecular target: Cyclin-dependent kinase 5 (Homo sapiens) (UniProt Q00535); test: CDK5 (INACTIVE) Invitrogen Lab (UK) kinase screen (BI); conditions: Compound concentration 1.0 uM
[10] = molecular target: Ephrin type-B receptor 2 (Homo sapiens) (UniProt P29323); conditions: Compound concentration 1.0 uM
[11] = molecular target: Sodium-dependent dopamine transporter (Homo sapiens, UniProt Q01959); conditions: Compound concentration 10.0 uM
[12] = molecular target: D(1B) dopamine receptor (Homo sapiens) (UniProt P21918); conditions: Compound concentration 10.0 uM
[13] = molecular target: 5-hydroxytryptamine receptor 2C (Homo sapiens) (UniProt P28335); conditions: Compound concentration 10.0 uM
[14] = molecular target: Tyrosine-protein kinase Fes/Fps (Homo sapiens) (UniProt P07332); conditions: Compound concentration 1.0 uM
[15] = molecular target: Serine/threonine-protein kinase Sgk1 (Homo sapiens) (UniProt O00141); conditions: Compound concentration 1.0 uM
[16] = molecular target: Cyclin-dependent kinase 4/cyclin D1 (Homo sapiens) (UniProt P11802+P24385); conditions: Compound concentration 1.0 uM
[17] = molecular target: Protein kinase C iota type (Homo sapiens) (UniProt P41743); conditions: Compound concentration 1.0 uM
[18] = molecular target: T1, Serine/threonine-protein kinase Chk1 (Homo sapiens) (UniProt O14757); test: CHK1 DUNDEE kinase screen (BI); conditions: Compound concentration 10.0 uM
T1 sequence (whole entry): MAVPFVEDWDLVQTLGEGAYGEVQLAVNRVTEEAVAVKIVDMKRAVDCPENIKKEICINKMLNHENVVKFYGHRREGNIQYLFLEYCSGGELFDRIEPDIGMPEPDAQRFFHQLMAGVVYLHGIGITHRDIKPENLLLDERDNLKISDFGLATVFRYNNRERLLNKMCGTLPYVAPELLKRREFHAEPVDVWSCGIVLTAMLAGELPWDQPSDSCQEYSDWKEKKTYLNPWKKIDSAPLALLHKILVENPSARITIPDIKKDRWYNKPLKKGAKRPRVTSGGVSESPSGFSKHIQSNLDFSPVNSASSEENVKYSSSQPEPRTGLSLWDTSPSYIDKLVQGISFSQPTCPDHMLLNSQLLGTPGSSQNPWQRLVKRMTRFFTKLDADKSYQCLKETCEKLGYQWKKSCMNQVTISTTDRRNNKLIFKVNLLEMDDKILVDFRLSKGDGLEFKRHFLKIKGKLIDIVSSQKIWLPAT

[19] = molecular target: Ephrin type-A receptor 6 (Homo sapiens) (UniProt Q9UF33); conditions: Compound concentration 1.0 uM
Sequence of Ephrin type-A receptor 6 (Homo sapiens) (Q9UF33 whole entry): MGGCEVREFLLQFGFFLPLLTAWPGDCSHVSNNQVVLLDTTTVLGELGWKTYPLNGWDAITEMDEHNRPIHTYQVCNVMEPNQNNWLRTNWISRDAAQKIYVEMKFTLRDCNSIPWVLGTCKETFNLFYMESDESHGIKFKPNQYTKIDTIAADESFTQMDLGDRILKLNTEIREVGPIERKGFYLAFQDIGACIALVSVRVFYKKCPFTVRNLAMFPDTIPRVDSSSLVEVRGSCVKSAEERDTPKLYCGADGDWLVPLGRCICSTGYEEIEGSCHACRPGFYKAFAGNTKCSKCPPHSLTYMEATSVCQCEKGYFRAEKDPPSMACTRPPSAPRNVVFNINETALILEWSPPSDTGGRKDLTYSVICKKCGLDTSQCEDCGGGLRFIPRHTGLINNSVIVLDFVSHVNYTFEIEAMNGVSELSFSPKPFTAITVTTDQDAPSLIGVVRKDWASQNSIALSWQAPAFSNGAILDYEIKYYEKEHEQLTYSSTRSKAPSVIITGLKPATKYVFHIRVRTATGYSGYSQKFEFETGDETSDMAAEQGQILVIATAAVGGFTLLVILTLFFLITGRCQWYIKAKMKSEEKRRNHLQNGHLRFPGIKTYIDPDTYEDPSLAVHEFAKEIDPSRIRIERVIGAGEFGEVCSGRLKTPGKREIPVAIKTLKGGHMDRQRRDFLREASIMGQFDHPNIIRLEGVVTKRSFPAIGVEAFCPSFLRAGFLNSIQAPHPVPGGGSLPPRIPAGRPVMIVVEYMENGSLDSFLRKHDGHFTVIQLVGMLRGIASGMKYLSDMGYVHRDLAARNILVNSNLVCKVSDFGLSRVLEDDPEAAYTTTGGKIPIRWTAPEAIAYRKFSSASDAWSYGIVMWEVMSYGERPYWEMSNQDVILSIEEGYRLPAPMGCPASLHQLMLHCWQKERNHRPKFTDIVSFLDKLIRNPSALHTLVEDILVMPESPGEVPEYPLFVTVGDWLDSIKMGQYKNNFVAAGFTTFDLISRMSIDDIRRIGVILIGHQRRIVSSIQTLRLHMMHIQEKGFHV

[20] = molecular target: Leucine-rich repeat serine/threonine-protein kinase 2 (Homo sapiens) (UniProt Q5S007); test: LRRK2_FL Invitrogen Lab (UK) kinase screen (BI); conditions: Compound concentration 1.0 uM
[21] = molecular target: AMP-activated protein kinase alpha-1/beta-2/gamma-3 (Homo sapiens) (UniProt O43741+Q13131+Q9UGI9); conditions: Compound concentration 1.0 uM
[22] = molecular target: Tyrosine-protein kinase BTK (Homo sapiens) (UniProt Q06187)
Sequence of Tyrosine-protein kinase BTK (Homo sapiens) (Q06187 whole entry): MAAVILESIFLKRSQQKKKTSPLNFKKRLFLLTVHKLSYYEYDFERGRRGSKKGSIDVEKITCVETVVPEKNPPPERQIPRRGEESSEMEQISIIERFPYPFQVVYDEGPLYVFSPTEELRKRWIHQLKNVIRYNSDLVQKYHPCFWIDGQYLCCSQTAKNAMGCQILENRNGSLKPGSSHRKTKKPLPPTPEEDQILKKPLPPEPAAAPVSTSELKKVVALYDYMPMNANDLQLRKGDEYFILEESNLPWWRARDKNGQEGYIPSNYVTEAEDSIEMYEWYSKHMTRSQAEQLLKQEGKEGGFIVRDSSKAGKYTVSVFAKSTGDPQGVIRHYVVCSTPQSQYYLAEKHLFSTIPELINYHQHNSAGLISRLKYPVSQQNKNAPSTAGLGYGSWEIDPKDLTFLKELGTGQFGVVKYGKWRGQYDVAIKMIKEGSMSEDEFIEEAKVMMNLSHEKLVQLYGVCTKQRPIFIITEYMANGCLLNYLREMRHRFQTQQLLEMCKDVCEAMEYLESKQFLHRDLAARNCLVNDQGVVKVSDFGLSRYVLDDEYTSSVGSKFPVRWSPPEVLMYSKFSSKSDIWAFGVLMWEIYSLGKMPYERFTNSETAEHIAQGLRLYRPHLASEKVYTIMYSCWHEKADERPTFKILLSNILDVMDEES

[23] = molecular target: Tyrosine-protein kinase Lyn (Homo sapiens) (UniProt P07948); conditions: Compound concentration 1.0 uM
[24] = molecular target: Casein kinase 2 (Homo sapiens) (UniProt P67870+P68400+P19784+Q8NEV1); test: CK2 DUNDEE kinase screen (BI); assay type: protein assay; conditions: Compound concentration 10.0 uM
[25] = molecular target: Peripheral plasma membrane protein CASK (Homo sapiens) (UniProt O14936); test: CASK Invitrogen Lab (UK) kinase screen (BI); conditions: Compound concentration 1.0 uM
[26] = molecular target: Ephrin type-A receptor 1 (Homo sapiens) (UniProt P21709); conditions: Compound concentration 1.0 uM
[27] = molecular target: Serine/threonine-protein kinase tousled-like 1 (Homo sapiens) (UniProt Q9UKI8); conditions: Compound concentration 1.0 uM
[28] = molecular target: Tyrosine-protein kinase ABL2 (Homo sapiens) (UniProt P42684); conditions: Compound concentration 1.0 uM
[29] = molecular target: Tyrosine-protein kinase TXK (Homo sapiens) (UniProt P42681); conditions: Compound concentration 1.0 uM
[30] = molecular target: Dual specificity mitogen-activated protein kinase kinase 1 (Homo sapiens) (UniProt Q02750); test: MAP2K1 Invitrogen Lab (UK) kinase screen (BI)
Sequence of Dual specificity mitogen-activated protein kinase kinase 1 (Homo sapiens) (Q02750 whole entry): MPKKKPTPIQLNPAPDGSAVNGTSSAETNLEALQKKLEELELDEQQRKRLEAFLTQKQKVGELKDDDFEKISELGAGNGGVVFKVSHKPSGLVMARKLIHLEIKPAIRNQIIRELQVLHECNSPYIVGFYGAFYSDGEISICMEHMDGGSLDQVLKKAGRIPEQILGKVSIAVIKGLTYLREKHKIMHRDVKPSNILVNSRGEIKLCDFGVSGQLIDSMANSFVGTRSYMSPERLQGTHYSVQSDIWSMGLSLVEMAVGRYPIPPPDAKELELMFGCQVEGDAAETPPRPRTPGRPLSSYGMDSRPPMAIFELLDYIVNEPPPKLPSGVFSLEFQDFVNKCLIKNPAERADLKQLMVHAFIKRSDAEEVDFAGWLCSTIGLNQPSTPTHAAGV

[31] = molecular target: Aurora kinase B (Homo sapiens) (UniProt Q96GD4); conditions: Compound concentration 1.0 uM
[32] = molecular target: Interferon-induced, double-stranded RNA-activated protein kinase (Homo sapiens) (UniProt P19525); conditions: Compound concentration 1.0 uM
[33] = molecular target: Phosphorylase b kinase gamma catalytic chain, testis/liver isoform (Homo sapiens) (UniProt P15735)
Sequence of Phosphorylase b kinase gamma catalytic chain, testis/liver isoform (Homo sapiens) (P15735 whole entry, looked up, canonical isoform): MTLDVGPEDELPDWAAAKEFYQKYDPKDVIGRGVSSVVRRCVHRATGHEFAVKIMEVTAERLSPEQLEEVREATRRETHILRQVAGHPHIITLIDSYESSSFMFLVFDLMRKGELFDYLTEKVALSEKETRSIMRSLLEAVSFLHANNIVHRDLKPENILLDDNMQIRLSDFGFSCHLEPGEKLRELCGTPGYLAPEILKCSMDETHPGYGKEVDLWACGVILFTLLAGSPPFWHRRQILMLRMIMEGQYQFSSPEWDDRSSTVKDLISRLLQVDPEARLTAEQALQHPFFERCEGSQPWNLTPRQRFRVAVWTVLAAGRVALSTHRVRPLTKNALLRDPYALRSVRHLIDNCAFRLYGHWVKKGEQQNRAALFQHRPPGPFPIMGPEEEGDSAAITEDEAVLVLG

[34] = molecular target: Myosin light chain kinase family member 4 (Homo sapiens) (UniProt Q86YV6); test: MYLK4 Invitrogen Lab (UK) kinase screen (BI); conditions: Compound concentration 1.0 uM
Sequence of Myosin light chain kinase family member 4 (Homo sapiens) (Q86YV6 whole entry): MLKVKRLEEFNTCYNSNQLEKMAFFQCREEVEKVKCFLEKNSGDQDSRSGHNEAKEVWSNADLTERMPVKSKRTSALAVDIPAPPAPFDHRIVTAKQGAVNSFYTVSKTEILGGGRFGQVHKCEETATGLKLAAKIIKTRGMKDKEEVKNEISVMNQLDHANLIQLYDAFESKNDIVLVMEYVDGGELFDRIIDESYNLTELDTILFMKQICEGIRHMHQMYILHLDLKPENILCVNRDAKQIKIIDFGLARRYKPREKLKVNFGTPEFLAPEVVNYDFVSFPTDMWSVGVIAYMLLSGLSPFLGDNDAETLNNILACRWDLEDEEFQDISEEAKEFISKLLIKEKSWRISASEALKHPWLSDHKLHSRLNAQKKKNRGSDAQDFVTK

[35] = molecular target: GABA-A receptor; anion channel (Rattus norvegicus) (UniProt O09028+P15431+P18506+P18508+P19969+P20236+P23574+P23576+P28471+P28473+P30191+P62813+P63079+P63138+Q91ZM7+Q9ES14); conditions: Compound concentration 10.0 uM
[36] = molecular target: Serine/threonine-protein kinase DCLK1 (Homo sapiens) (UniProt O15075); conditions: Compound concentration 1.0 uM
Sequence of Serine/threonine-protein kinase DCLK1 (Homo sapiens) (O15075 whole entry): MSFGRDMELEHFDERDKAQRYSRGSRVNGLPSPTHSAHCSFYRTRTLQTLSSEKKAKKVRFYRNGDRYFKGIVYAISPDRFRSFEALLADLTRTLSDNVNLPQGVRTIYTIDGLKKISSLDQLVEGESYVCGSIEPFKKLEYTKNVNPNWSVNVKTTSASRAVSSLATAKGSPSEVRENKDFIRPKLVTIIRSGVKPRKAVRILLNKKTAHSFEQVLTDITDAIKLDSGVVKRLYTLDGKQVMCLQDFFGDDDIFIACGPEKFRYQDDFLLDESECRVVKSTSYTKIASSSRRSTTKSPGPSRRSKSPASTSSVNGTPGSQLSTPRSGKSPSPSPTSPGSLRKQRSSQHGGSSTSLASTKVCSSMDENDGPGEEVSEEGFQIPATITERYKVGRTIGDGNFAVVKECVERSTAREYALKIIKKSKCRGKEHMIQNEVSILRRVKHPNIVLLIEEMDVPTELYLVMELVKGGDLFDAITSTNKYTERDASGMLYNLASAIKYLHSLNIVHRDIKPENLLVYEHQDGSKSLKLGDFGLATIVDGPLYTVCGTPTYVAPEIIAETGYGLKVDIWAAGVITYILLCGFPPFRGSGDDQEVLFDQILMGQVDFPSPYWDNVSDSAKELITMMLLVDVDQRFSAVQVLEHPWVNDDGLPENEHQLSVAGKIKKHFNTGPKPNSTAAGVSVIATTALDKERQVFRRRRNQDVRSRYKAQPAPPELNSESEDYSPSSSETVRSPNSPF

Sequence of Tyrosine-protein kinase Mer (Homo sapiens) (Q12866 whole entry): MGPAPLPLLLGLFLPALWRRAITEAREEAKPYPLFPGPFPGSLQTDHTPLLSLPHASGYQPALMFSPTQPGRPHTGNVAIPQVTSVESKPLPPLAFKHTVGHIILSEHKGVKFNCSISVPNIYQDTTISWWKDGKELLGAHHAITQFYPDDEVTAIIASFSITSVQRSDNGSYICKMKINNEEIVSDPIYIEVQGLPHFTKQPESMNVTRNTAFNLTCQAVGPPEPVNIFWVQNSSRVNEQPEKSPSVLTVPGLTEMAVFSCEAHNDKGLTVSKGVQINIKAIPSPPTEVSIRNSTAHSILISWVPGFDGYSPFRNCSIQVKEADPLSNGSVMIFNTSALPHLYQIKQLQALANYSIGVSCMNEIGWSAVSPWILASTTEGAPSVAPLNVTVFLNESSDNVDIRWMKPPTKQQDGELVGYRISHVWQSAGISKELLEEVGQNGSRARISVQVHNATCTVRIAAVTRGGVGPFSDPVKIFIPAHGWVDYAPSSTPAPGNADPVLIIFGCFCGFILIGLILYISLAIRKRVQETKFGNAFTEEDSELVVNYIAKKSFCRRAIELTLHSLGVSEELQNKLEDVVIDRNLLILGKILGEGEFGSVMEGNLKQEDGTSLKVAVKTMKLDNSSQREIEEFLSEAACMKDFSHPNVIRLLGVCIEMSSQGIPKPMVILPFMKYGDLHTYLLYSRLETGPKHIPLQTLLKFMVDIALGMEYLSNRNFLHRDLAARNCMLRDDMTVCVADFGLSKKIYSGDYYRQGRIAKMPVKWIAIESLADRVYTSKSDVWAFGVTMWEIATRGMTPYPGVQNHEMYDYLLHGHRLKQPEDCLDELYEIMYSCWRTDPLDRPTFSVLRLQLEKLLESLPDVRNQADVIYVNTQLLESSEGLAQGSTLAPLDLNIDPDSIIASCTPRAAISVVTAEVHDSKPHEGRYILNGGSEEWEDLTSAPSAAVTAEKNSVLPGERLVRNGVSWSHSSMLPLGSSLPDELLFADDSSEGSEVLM

CCC(F)(F)c1cc(N2CCC(S(C)(=O)=O)CC2)nc2sc(C(N)=O)c(N)c12 [BI-605906]
inactive: residual activity [1] 97% | inhibition [2] -5.46% | residual activity [3] 93% | residual activity [4] 100% | residual activity [5] 97% | residual activity [6] 84% | residual activity ([7]; Compound concentration 1.0 uM) 93% | residual activity ([7]; Compound concentration 10.0 uM) 87% | residual activity [8] 82% | residual activity [9] 83% | residual activity [10] 89% | inhibition [11] 2.35% | inhibition [12] 2.13% | inhibition [13] -5.41% | residual activity [14] 91% | residual activity [15] 97% | residual activity [16] 99% | residual activity [17] 105% | residual activity [18] 90.2% | residual activity [19] 91% | residual activity [20] 62% | residual activity [21] 91% | residual activity ([22]; Compound concentration 1.0 uM) 85% | residual activity ([22]; Compound concentration 10.0 uM) 96% | residual activity [23] 82% | residual activity [24] 89.4% | residual activity [25] 52% | residual activity [26] 82% | residual activity [27] 91% | residual activity [28] 91% | residual activity [29] 93% | residual activity ([30]; Compound concentration 1.0 uM) 76% | residual activity ([30]; Compound concentration 10.0 uM) 80% | residual activity [31] 98% | residual activity [32] 96% | residual activity ([33]; Compound concentration 1.0 uM) 99% | residual activity ([33]; Compound concentration 10.0 uM) 97% | residual activity [34] 83% | inhibition [35] 8.92% | residual activity [36] 99%
